According to EP4678638A1, “NEW E3 UBIQUITIN LIGASE LIGAND, PROTEIN DEGRADATION AGENT AND USE THEREOF” (priority 2023, dated 2024):

What was measured:
Assay type in all cases: cell-based
Settings in all cases: Table D16
IKZF1 = molecular target: T1, IKZF1 (Homo sapiens, UniProt Q13422+Q96SW2); assay: Western blot degradation of IKZF1 (hPBMC)
T1 construct: evaluate the effects of the compounds of the present disclosure on the expression of target proteins in cells; endogenous in cells; host or cells: hPBMC
Experimental: (§1) Conventional Western blot assay was performed to evaluate the effects of the compounds of the present disclosure on the expression of target proteins in cells.
(§2) (1) Cell Seeding and Protein Harvesting: The selected cells were processed according to the cell seeding procedure and protein harvesting procedure in Table III-2. Table III-2 Cell Seeding and Protein Harvesting Procedures
(§3) (2) To the collected supernatant, 5X SDS sample loading buffer was added, followed by denaturation at 95°C for 5 minutes. The denatured samples were then separated by SDS-PAGE electrophoresis on a polyacrylamide gel. Proteins were transferred to a nitrocellulose membrane (0.45 µm NC membrane), blocked with blocking buffer at room temperature for 1 hour, and subjected to antibody incubation and development procedures according to the antibody manufacturer's instructions (Cell Signaling Technology).
(§4) Half-Maximal Degradation Concentration value (the drug concentration required for degrading proteins by 50%, abbreviated as DC50) reads method: comparing the grayscale values of Western blot bands from drug-treated samples with those from blank DMSO-treated controls, and identifying the drug concentration range at which the grayscale value is half that of the DMSO-treated control bands.
(§5) DC50 values can be calculated using ImageJ software to measure grayscale values of Western blot bands from drug-treated samples. The concentration-response curve is fitted to estimate the drug concentration corresponding to half the grayscale value.
(§6) Target protein remaining (%) refers to the percentage of target protein remaining in hPBMC cells after treatment with protein degrader compounds.
(§7) Calculation method for target protein remaining (%): Use ImageJ software to measure grayscale values of Western blot bands from drug (protein degrader)-treated samples. The grayscale value of drug-treated bands is divided by that of internal control protein bands, and the resulting quotient is normalized to obtain the relative percentage of remaining target protein after protein degrader treatment.
(§8) Target protein degradation rate (%) = 100% - target protein remaining (%).

CK1a = molecular target: T2, CK1a (Homo sapiens, UniProt P48729+Q96SW2); assay: Western blot degradation of CK1a (hPBMC)
T2 construct: evaluate the effects of the compounds of the present disclosure on the expression of target proteins in cells; endogenous in cells; host or cells: hPBMC
Experimental: as §1, §2, §3, §4, §5, §6, §7, §8

IKZF2 = molecular target: T3, IKZF2 (Homo sapiens, UniProt Q96SW2+Q9UKS7); assay: Western blot degradation of IKZF2 (hPBMC)
T3 construct: evaluate the effects of the compounds of the present disclosure on the expression of target proteins in cells; endogenous in cells; host or cells: hPBMC
Experimental: as §1, §2, §3, §4, §5, §6, §7, §8

GSPT1 = molecular target: T4, GSPT1 (Homo sapiens, UniProt P15170+Q96SW2); assay: Western blot degradation of GSPT1 (hPBMC)
T4 construct: evaluate the effects of the compounds of the present disclosure on the expression of target proteins in cells; endogenous in cells; host or cells: hPBMC
Experimental: as §1, §2, §3, §4, §5, §6, §7, §8

IKZF3 = molecular target: T5, IKZF3 (Homo sapiens, UniProt Q96SW2+Q9UKT9); assay: Western blot degradation of IKZF3 (hPBMC)
T5 construct: evaluate the effects of the compounds of the present disclosure on the expression of target proteins in cells; endogenous in cells; host or cells: hPBMC
Experimental: as §1, §2, §3, §4, §5, §6, §7, §8

WEE1 = molecular target: T6, WEE1 (Homo sapiens, UniProt P30291+Q96SW2); assay: Western blot degradation of WEE1 (hPBMC)
T6 construct: evaluate the effects of the compounds of the present disclosure on the expression of target proteins in cells; endogenous in cells; host or cells: hPBMC
Experimental: as §1, §2, §3, §4, §5, §6, §7, §8

T2 sequence (P48729 whole entry): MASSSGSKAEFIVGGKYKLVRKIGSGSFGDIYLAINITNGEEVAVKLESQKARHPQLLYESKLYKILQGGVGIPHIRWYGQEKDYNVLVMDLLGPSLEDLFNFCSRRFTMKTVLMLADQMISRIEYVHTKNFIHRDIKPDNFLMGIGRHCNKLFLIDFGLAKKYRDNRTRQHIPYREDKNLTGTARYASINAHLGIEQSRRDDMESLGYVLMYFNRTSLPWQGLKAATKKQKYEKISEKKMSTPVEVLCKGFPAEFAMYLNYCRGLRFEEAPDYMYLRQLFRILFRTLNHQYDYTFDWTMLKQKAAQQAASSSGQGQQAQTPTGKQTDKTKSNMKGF
T2 sequence (Q96SW2 whole entry): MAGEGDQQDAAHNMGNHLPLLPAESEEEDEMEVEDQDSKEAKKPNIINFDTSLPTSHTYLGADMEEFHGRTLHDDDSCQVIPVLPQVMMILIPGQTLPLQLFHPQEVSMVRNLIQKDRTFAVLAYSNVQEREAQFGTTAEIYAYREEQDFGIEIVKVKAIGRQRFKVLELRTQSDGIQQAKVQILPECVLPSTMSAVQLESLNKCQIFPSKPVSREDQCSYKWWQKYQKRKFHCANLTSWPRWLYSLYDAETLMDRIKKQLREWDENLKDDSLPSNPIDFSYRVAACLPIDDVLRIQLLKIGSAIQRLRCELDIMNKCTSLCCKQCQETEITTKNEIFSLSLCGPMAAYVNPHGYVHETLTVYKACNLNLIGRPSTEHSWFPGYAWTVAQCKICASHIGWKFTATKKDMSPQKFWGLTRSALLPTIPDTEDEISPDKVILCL
T2 sequence (Q16531 whole entry partner): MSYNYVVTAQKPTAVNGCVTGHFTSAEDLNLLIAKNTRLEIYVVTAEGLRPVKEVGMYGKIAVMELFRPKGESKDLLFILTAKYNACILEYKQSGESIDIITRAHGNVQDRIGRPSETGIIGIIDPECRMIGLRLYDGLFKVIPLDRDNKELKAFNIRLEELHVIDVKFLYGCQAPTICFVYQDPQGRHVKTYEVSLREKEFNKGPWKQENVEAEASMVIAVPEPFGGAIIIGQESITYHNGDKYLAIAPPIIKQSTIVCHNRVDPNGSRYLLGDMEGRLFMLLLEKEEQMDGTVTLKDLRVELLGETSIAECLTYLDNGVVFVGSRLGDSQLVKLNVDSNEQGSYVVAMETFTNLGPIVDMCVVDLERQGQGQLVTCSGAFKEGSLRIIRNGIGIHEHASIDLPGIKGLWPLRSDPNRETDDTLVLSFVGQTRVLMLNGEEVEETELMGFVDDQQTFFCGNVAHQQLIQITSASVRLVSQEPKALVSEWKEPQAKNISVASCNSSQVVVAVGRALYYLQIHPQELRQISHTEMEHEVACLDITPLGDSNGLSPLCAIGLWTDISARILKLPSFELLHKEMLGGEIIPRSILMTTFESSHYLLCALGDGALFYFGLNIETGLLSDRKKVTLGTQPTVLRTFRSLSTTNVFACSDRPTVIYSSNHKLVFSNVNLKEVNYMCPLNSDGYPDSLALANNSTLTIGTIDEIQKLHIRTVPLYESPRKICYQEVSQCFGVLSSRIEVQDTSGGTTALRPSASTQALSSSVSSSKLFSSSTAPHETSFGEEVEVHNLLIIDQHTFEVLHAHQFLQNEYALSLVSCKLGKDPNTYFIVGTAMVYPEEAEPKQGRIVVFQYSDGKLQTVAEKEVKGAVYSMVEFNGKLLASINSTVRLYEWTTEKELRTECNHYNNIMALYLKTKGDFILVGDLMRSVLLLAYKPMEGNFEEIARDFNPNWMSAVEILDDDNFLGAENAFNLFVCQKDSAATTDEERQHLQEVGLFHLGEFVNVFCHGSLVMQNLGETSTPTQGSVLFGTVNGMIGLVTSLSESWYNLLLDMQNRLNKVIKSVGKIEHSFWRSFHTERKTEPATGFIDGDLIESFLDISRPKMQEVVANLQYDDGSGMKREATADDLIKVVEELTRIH
T6 sequence (P30291 whole entry): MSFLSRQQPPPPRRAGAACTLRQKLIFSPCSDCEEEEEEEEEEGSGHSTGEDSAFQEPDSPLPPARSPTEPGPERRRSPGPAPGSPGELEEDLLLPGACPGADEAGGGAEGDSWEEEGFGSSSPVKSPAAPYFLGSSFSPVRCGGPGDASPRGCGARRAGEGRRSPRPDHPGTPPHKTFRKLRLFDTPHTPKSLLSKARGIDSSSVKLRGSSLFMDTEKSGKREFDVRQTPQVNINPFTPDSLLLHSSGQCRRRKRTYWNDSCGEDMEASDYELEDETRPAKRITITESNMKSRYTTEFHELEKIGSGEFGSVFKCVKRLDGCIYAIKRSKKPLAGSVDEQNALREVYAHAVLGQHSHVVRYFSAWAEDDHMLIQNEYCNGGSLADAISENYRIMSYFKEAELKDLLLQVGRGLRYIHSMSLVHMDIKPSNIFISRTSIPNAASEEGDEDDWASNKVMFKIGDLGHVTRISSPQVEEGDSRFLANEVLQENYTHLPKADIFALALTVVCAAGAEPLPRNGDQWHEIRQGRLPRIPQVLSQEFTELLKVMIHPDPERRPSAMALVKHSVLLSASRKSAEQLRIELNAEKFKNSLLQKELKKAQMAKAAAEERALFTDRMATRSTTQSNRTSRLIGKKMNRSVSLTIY
T6 sequence (Q96SW2 whole entry): as the sequence (Q96SW2 whole entry) above
T6 sequence (Q16531 whole entry partner): as the sequence (Q16531 whole entry partner) above
T3 sequence (Q9UKS7 whole entry): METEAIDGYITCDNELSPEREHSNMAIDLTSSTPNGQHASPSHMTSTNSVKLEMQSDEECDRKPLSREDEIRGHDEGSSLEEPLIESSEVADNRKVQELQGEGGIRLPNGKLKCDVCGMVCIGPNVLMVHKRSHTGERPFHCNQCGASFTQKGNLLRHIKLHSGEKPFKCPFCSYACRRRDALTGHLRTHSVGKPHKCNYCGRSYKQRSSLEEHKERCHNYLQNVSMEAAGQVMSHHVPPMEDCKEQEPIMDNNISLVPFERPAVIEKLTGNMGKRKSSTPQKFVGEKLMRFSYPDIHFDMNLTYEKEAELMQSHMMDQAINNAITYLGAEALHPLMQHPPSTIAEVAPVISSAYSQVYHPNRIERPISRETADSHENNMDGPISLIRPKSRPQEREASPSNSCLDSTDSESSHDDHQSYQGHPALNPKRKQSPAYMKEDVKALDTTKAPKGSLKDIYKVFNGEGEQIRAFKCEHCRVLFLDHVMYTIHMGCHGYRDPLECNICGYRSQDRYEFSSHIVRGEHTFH
T3 sequence (Q96SW2 whole entry): as the sequence (Q96SW2 whole entry) above
T3 sequence (Q16531 whole entry partner): as the sequence (Q16531 whole entry partner) above
T5 sequence (Q9UKT9 whole entry): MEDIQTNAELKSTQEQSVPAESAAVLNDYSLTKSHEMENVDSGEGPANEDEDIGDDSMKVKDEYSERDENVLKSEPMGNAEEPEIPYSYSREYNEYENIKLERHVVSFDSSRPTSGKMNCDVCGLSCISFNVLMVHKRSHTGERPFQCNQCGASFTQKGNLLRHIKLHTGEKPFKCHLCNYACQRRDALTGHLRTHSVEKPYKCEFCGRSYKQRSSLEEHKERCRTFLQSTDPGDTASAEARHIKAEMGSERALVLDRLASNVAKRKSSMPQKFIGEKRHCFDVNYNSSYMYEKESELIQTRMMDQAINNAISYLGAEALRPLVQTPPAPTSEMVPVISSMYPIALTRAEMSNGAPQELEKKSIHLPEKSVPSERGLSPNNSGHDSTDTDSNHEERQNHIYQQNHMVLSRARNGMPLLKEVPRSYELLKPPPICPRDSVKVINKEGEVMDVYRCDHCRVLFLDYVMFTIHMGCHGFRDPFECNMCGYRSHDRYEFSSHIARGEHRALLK
T5 sequence (Q96SW2 whole entry): as the sequence (Q96SW2 whole entry) above
T5 sequence (Q16531 whole entry partner): as the sequence (Q16531 whole entry partner) above
T1 sequence (Q13422 whole entry): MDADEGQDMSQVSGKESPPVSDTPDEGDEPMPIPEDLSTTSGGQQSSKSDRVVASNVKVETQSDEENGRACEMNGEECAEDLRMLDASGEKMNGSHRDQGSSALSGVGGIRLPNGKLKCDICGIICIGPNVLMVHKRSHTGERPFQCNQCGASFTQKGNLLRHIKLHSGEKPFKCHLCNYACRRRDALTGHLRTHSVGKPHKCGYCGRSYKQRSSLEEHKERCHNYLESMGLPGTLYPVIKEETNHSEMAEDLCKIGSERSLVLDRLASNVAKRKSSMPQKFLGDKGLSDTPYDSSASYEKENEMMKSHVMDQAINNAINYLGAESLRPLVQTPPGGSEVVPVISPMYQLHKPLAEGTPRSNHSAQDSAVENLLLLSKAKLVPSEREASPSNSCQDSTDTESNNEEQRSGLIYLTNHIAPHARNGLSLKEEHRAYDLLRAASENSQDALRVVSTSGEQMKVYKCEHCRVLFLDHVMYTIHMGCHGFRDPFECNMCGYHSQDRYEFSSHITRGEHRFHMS
T1 sequence (Q96SW2 whole entry): as the sequence (Q96SW2 whole entry) above
T1 sequence (Q16531 whole entry partner): as the sequence (Q16531 whole entry partner) above

| Structure (SMILES) | Degradation of substrate protein IKZF1 (substrate protein remaining %) (IKZF1) | Degradation of substrate protein CKla (substrate protein remaining %) (CK1a) | Degradation of substrate protein IKZF2 (substrate protein remaining %) (IKZF2) | Degradation of substrate protein GSPT1 (substrate protein remaining %) (GSPT1) | Degradation of substrate protein IKZF3 (substrate protein remaining %) (IKZF3) | Degradation of substrate protein WEE1 (substrate protein remaining %) (WEE1) |
| --- | --- | --- | --- | --- | --- | --- |
| O=C1CCN(c2cncc(CCl)n2)C(=O)N1 [GT-07728, 1-(6-(Chloromethyl)pyrazin-2-yl)dihydropyrimidine-2,4(1H,3H)-dione] | A (A is defined as 0% ≤ substrate protein remaining % ≤ 80%) | B (B is defined as substrate protein remaining % > 80%) | A (A is defined as 0% ≤ substrate protein remaining % ≤ 80%) | B (B is defined as substrate protein remaining % > 80%) | A (A is defined as 0% ≤ substrate protein remaining % ≤ 80%) | A (A is defined as 0% ≤ substrate protein remaining % ≤ 80%) |
| O=Cc1ccc(NC2CCC(=O)NC2=O)cn1 (stereo not drawn) [GT-07640, 5-((2,6-Dioxopiperidin-3-yl)amino)picolinaldehyde] | A (A is defined as 0% ≤ substrate protein remaining % ≤ 80%) | B (B is defined as substrate protein remaining % > 80%) | A (A is defined as 0% ≤ substrate protein remaining % ≤ 80%) | A (A is defined as 0% ≤ substrate protein remaining % ≤ 80%) | A (A is defined as 0% ≤ substrate protein remaining % ≤ 80%) | A (A is defined as 0% ≤ substrate protein remaining % ≤ 80%) |
| NCc1ccc(N2CCC(=O)NC2=O)nc1 [GT-07012, 1-(5-(Aminomethyl)pyridin-2-yl)dihydropyrimidine-2,4(1H,3H)-dione] | B (B is defined as substrate protein remaining % > 80%) | B (B is defined as substrate protein remaining % > 80%) | B (B is defined as substrate protein remaining % > 80%) | A (A is defined as 0% ≤ substrate protein remaining % ≤ 80%) | A (A is defined as 0% ≤ substrate protein remaining % ≤ 80%) | A (A is defined as 0% ≤ substrate protein remaining % ≤ 80%) |
| CC(C)(C)[Si](C)(C)OCc1cncnc1NC1CCC(=O)NC1=O (stereo not drawn) [GT-07639, 3-((5-(((tert-Butyldimethylsilyl)oxy)methyl)pyrimidin-4-yl)amino)piperidine-2,6-dione] | A (A is defined as 0% ≤ substrate protein remaining % ≤ 80%) | A (A is defined as 0% ≤ substrate protein remaining % ≤ 80%) | A (A is defined as 0% ≤ substrate protein remaining % ≤ 80%) | A (A is defined as 0% ≤ substrate protein remaining % ≤ 80%) | A (A is defined as 0% ≤ substrate protein remaining % ≤ 80%) | A (A is defined as 0% ≤ substrate protein remaining % ≤ 80%) |
| O=C1CCN(c2cnc(F)c(CO)c2)C(=O)N1 [GT-07556, 1-(6-Fluoro-5-(hydroxymethyl)pyridin-3-yl)dihydropyrimidine-2,4(1H,3H)-dione] | A (A is defined as 0% ≤ substrate protein remaining % ≤ 80%) | A (A is defined as 0% ≤ substrate protein remaining % ≤ 80%) | B (B is defined as substrate protein remaining % > 80%) | B (B is defined as substrate protein remaining % > 80%) | A (A is defined as 0% ≤ substrate protein remaining % ≤ 80%) | A (A is defined as 0% ≤ substrate protein remaining % ≤ 80%) |
| O=C1CCC(Nc2ccc(CO)nn2)C(=O)N1 (stereo not drawn) [GT-07803, 3-((6-(Hydroxymethyl)pyridazin-3-yl)amino)piperidine-2,6-dione] | A (A is defined as 0% ≤ substrate protein remaining % ≤ 80%) | B (B is defined as substrate protein remaining % > 80%) | A (A is defined as 0% ≤ substrate protein remaining % ≤ 80%) | B (B is defined as substrate protein remaining % > 80%) | A (A is defined as 0% ≤ substrate protein remaining % ≤ 80%) | B (B is defined as substrate protein remaining % > 80%) |
| O=C1CCC(Nc2ncc(CO)cn2)C(=O)N1 (stereo not drawn) [GT-07809, 3-((5-(Hydroxymethyl)pyrimidin-2-yl)amino)piperidine-2,6-dione] | A (A is defined as 0% ≤ substrate protein remaining % ≤ 80%) | B (B is defined as substrate protein remaining % > 80%) | A (A is defined as 0% ≤ substrate protein remaining % ≤ 80%) | B (B is defined as substrate protein remaining % > 80%) | A (A is defined as 0% ≤ substrate protein remaining % ≤ 80%) | A (A is defined as 0% ≤ substrate protein remaining % ≤ 80%) |
| O=C1CCN(c2cnc(CO)cn2)C(=O)N1 [GT-07634, 1-(5-(Hydroxymethyl)pyrazin-2-yl)dihydropyrimidine-2,4(1H,3H)-dione] | A (A is defined as 0% ≤ substrate protein remaining % ≤ 80%) | A (A is defined as 0% ≤ substrate protein remaining % ≤ 80%) | A (A is defined as 0% ≤ substrate protein remaining % ≤ 80%) | B (B is defined as substrate protein remaining % > 80%) | A (A is defined as 0% ≤ substrate protein remaining % ≤ 80%) | A (A is defined as 0% ≤ substrate protein remaining % ≤ 80%) |
| O=C1CCC(Nc2ncccc2CO)C(=O)N1 (stereo not drawn) [GT-07197, 3-((3-(Hydroxymethyl)pyridin-2-yl)amino)piperidine-2,6-dione] | B (B is defined as substrate protein remaining % > 80%) | A (A is defined as 0% ≤ substrate protein remaining % ≤ 80%) | B (B is defined as substrate protein remaining % > 80%) | A (A is defined as 0% ≤ substrate protein remaining % ≤ 80%) | B (B is defined as substrate protein remaining % > 80%) | B (B is defined as substrate protein remaining % > 80%) |
| O=C1CCC(c2cc(CO)c(F)cn2)C(=O)N1 (stereo not drawn) [GT-07444, 3-(5-Fluoro-4-(hydroxymethyl)pyridin-2-yl)piperidine-2,6-dione] | B (B is defined as substrate protein remaining % > 80%) | B (B is defined as substrate protein remaining % > 80%) | A (A is defined as 0% ≤ substrate protein remaining % ≤ 80%) | B (B is defined as substrate protein remaining % > 80%) | A (A is defined as 0% ≤ substrate protein remaining % ≤ 80%) | B (B is defined as substrate protein remaining % > 80%) |
| NCc1cncc(N2CCC(=O)NC2=O)n1 [GT-07801, 1-(6-(Aminomethyl)pyrazin-2-yl)dihydropyrimidine-2,4(1H,3H)-dione] | B (B is defined as substrate protein remaining % > 80%) | A (A is defined as 0% ≤ substrate protein remaining % ≤ 80%) | B (B is defined as substrate protein remaining % > 80%) | B (B is defined as substrate protein remaining % > 80%) | B (B is defined as substrate protein remaining % > 80%) | B (B is defined as substrate protein remaining % > 80%) |
